Experimental findings from ChEMBL document CHEMBL1201862, “PubChem BioAssay data set” (2004) are described below.

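Each compound was tested at five concentrations against cells in 96-well plates for 48 hours. Abbreviation: GI50, concentration required for 50% inhibition of growth.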 Activity calls are given as the source filed them. Rule as the data show it: active = GI50 up to about 1.1 µM and inactive = higher.

What all share (test): DTP human tumour cell line panel, 48 h
For test [1], the system named is HL-60.
Test [2] relates to MCF7.
Test [3] deals with KM12.
In test [4] the test system is SK-MEL-2.
Test [5] relates to NCI-H522.
In test [6] the test system is SN12C.
For test [7], the system named is HOP-62.
Test [8] has as its system M14.
In test [9] the test system is NCI-H460.
The subject of test [10] is UACC-62.
Test [11] concerns OVCAR-3.
The test system of test [12] is MOLT-4.
For test [13], the system named is CCRF-CEM.
Test [14] concerns K562.
The test system of test [15] is MDA-N.
Test [16] has as its system RPMI-8226.
The subject of test [17] is HT-29.
The test system of test [18] is SF-268.
The subject of test [19] is PC-3.
Test [20] concerns NCI/ADR-RES.

As a reminder, the GI50 is the concentration giving 50% growth inhibition. In the case of `Nc1ncc2c(n1)-c1ccccc1OC2N1CCCC1` (stereo not given), the GI50 was 1900 nM (inactive) in [1]; > 100000 nM (inactive) in test [2]; > 100000 nM (inactive) in [3]; > 100000 nM (inactive) in test [4]; > 100000 nM (inactive) in [5]; > 100000 nM (inactive) in test [6]. Further, the GI50 in test [7], in test [8], in test [9], in [10], in test [11] and in [12] was > 100000 nM (inactive) in each case. The GI50 in test [13], in test [14], in test [15], in test [16], in [17] and in test [18] was > 100000 nM (inactive) each time. Also, the GI50 in test [19] and in test [20] was > 100000 nM (inactive) each time.

On to `COc1cccc(/C=C/C(=O)N2CC(CCl)c3c2cc(N)c2ccccc32)c1` (stereo not given), for which the GI50 in test [1] is < 10 nM (active); in test [2], 0.238 nM (active); in test [3], 4.34 nM (active); in test [4] it was 8.34 nM (active); in [5], 0.45 nM (active); in [6], 3.57 nM (active). The GI50 in [7] is < 10 nM (active); in test [8] it was 9.57 nM (active); in test [9] it was 0.115 nM (active); in test [10] it was 2.98 nM (active); in test [11], < 10 nM (active); in test [12], 19.4 nM (active). Further, the GI50 in test [13] is < 10 nM (active); in test [14], < 10 nM (active); in test [15] it was 14.3 nM (active); in [16], 50.7 nM (active); in test [17], < 10 nM (active); in test [18], 0.693 nM (active). Besides, the GI50 in [19] was 2.84 nM (active); in [20], 73.1 nM (active).
